Tested on: Chung model (spinal nerve ligation rats)
Assay: Tactile allodynia test after spinal nerve ligation (SNL, Chung model)
Assay type: in vivo, rat
Details: 3, 10 and 30 mg/kg po in saline, administered 1 hour prior to the tactile allodynic test
Description: SNL surgery: For spinal nerve ligation surgery, rats were anesthetized with isoflurane gas. […] The hair at the surgical site was clipped and disinfected with alcohol and betadine. Body temperature was maintained during surgery by using a heating pad. A skin incision (approximately 3 cm) was made on the dorsal midline, using the level of the iliac crests as the midpoint of the incision. At the mid-sacral region, on the left side of the vertebral column (in the sagittal plane), a #15 scalpel blade was used to cut the muscles close to the vertebral body until the blade hits the sacrum bone. A retractor system was used to expose the area from the sacro-iliac rim to about 2 cm of the lateral vertebral column. Using rongeurs, the facet joint was removed followed by the L6 transverse process. A glass hook was used to isolate and tightly ligate L5 and L6 with 6-0 silk suture. The muscle was then sutured using 4-0 silk suture. The skin was closed using wound clips.
Tactile allodynia test: The rats were placed on testing stands with screens under their feet. von Frey filaments eliciting various forces (up to 15 g) were applied to the paws, starting with a filament of 4.31 g and proceeding with alternating lighter and heavier filaments. The measured variable is the 50% withdrawal threshold (PWT) and is calculated from the up-down formula in Chaplan et al. 1994.

CCOc1ncccc1C1(NC(=O)N2CCN(C3CCN(C)CC3)CC2)C(=O)N(S(=O)(=O)c2ccc(OC)cc2OC)c2ccc(Cl)cc21 (stereo not shown) [compound 1]
50% paw withdrawal threshold (PWT): dose-dependently increased the withdrawal threshold

— patent US20110059983A1, “USE OF SUBSTITUTED OXINDOLE DERIVATIVES FOR THE TREATMENT AND PROPHYLAXIS OF PAIN” (Abbott GmbH & Co. KG, priority 2009, published 2011)
